Molecular target: HIV-1 RT (reverse transcriptase)
Assay: Inhibitory concentration against HIV-1 RT was determined

IC50: 115 nM
Structure (SMILES): O=C(C[C@H]1C(=O)Nc2ccccc2-c2cccn21)OCc1ccccc1

Reference: BindingDB's records for doi:10.7270/Q21V5H4F (n/a, 1992)
